Key:
CCRF-CEM = conditions: read-out: Median Growth Inhibitory Concentration (GI50), Leukemia, 48 hours
K-562 = conditions: read-out: Median Growth Inhibitory Concentration (GI50); K-562, Leukemia; 48 hours
MOLT-4 = conditions: read-out: Median Growth Inhibitory Concentration (GI50); MOLT-4, Leukemia; 48 hours
A549 = conditions: read-out: Median Growth Inhibitory Concentration (GI50); A549, Non-Small Cell Lung Cancer; 48 hours
EKVX = conditions: read-out: Median Growth Inhibitory Concentration (GI50), Non-Small Cell Lung Cancer, 48 hours
HOP-62 = conditions: read-out: Median Growth Inhibitory Concentration (GI50); HOP-62, Non-Small Cell Lung Cancer; 48 hours
NCI-H460 = conditions: read-out: Median Growth Inhibitory Concentration (GI50); NCI-H460, Non-Small Cell Lung Cancer; 48 hours
NCI-H522 = conditions: read-out: Median Growth Inhibitory Concentration (GI50); NCI-H522, Non-Small Cell Lung Cancer; 48 hours
COLO 205 = conditions: read-out: Median Growth Inhibitory Concentration (GI50); COLO 205, Colon Cancer; 48 hours
HCT-116 = conditions: read-out: Median Growth Inhibitory Concentration (GI50); HCT-116, Colon Cancer; 48 hours
HCT-15 = conditions: read-out: Median Growth Inhibitory Concentration (GI50); HCT-15, Colon Cancer; 48 hours
KM12 = conditions: read-out: Median Growth Inhibitory Concentration (GI50); KM12, Colon Cancer; 48 hours
SF-268 = conditions: read-out: Median Growth Inhibitory Concentration (GI50); SF-268, CNS Cancer; 48 hours
SF-295 = conditions: read-out: Median Growth Inhibitory Concentration (GI50); SF-295, CNS Cancer; 48 hours
M14 = conditions: read-out: Median Growth Inhibitory Concentration (GI50); M14, Melanoma; 48 hours
SK-MEL-2 = conditions: read-out: Median Growth Inhibitory Concentration (GI50); SK-MEL-2, Melanoma; 48 hours
UACC-257 = conditions: read-out: Median Growth Inhibitory Concentration (GI50); UACC-257, Melanoma; 48 hours
IGROV1 = conditions: read-out: Median Growth Inhibitory Concentration (GI50); IGROV1, Ovarian Cancer; 48 hours
OVCAR-4 = conditions: read-out: Median Growth Inhibitory Concentration (GI50); OVCAR-4, Ovarian Cancer; 48 hours
OVCAR-5 = conditions: read-out: Median Growth Inhibitory Concentration (GI50); OVCAR-5, Ovarian Cancer; 48 hours
SK-OV-3 = conditions: read-out: Median Growth Inhibitory Concentration (GI50); SK-OV-3, Ovarian Cancer; 48 hours
786-0 = conditions: read-out: Median Growth Inhibitory Concentration (GI50); 786-0, Renal Cancer; 48 hours
A498 = conditions: read-out: Median Growth Inhibitory Concentration (GI50); A498, Renal Cancer; 48 hours
ACHN = conditions: read-out: Median Growth Inhibitory Concentration (GI50), Renal Cancer, 48 hours
CAKI-1 = conditions: read-out: Median Growth Inhibitory Concentration (GI50); CAKI-1, Renal Cancer; 48 hours
SN12C = conditions: read-out: Median Growth Inhibitory Concentration (GI50), Renal Cancer, 48 hours
PC-3 = conditions: read-out: Median Growth Inhibitory Concentration (GI50); PC-3, Prostate Cancer; 48 hours
DU-145 = conditions: read-out: Median Growth Inhibitory Concentration (GI50); DU-145, Prostate Cancer; 48 hours
NCI/ADR-RES = conditions: read-out: Median Growth Inhibitory Concentration (GI50), Breast Cancer, 48 hours
MDA-MB-435 = conditions: read-out: Median Growth Inhibitory Concentration (GI50); MDA-MB-435, Breast Cancer; 48 hours
BT-549 = conditions: read-out: Median Growth Inhibitory Concentration (GI50); BT-549, Breast Cancer; 48 hours
T-47D = conditions: read-out: Median Growth Inhibitory Concentration (GI50), Breast Cancer, 48 hours

Question: Which results are given for “3,5-Bis(2-hydroxybenzylidene)-sulfone [EF11]”?
Answer: GI50 (CCRF-CEM): 22 µM; GI50 (K-562): 27.4 µM; GI50 (MOLT-4): 19.7 µM; GI50 (A549): 38.7 µM; GI50 (EKVX): 30.6 µM; GI50 (HOP-62): 83.3 µM; GI50 (NCI-H460): 30.7 µM; GI50 (NCI-H522): 33.3 µM; GI50 (COLO 205): 39.6 µM; GI50 (HCT-116): 36.8 µM; GI50 (HCT-15): 42.6 µM; GI50 (KM12): 19.1 µM; GI50 (SF-268): 24.6 µM; GI50 (SF-295): 53.8 µM; GI50 (M14): 33.9 µM; GI50 (SK-MEL-2): 24 µM; GI50 (UACC-257): 29.8 µM; GI50 (IGROV1): 35.9 µM; GI50 (OVCAR-4): 28.7 µM; GI50 (OVCAR-5): 89.2 µM; GI50 (SK-OV-3): > 100 µM; GI50 (786-0): 41.3 µM; GI50 (A498): 34.2 µM; GI50 (ACHN): 41 µM; GI50 (CAKI-1): 29.2 µM; GI50 (SN12C): 34.2 µM; GI50 (PC-3): 34.9 µM; GI50 (DU-145): 29.9 µM; GI50 (NCI/ADR-RES): 86.1 µM; GI50 (MDA-MB-435): 31.4 µM; GI50 (BT-549): 32.9 µM; GI50 (T-47D): 24.7 µM

Question: Which GI50 (CCRF-CEM) does the source give for `N.N.[Cl][Pt][Cl]` [Cisplatin, reference compound] here?
Answer: Its GI50 is 0.2 µM.

Question: What about the GI50 (K-562) of the same molecule?
Answer: Its GI50 is 1 µM.

Question: What about the GI50 (MOLT-4) of the same molecule?
Answer: The GI50 was 0.3 µM.

Question: And the GI50 (A549)?
Answer: The GI50 was 0.8 µM.

Question: What about the GI50 (EKVX) of the same molecule?
Answer: Its GI50 is 1.6 µM.

Question: What about the GI50 (HOP-62) of the same molecule?
Answer: Its GI50 is 0.3 µM.

Question: What about the GI50 (NCI-H460) of the same molecule?
Answer: Its GI50 is 0.1 µM.

Question: And the GI50 (NCI-H522)?
Answer: Its GI50 is 0.8 µM.

Question: And the GI50 (COLO 205)?
Answer: Its GI50 is 4 µM.

Question: What about the GI50 (HCT-116) of the same molecule?
Answer: The GI50 was 1.3 µM.

Question: What about the GI50 (HCT-15) of the same molecule?
Answer: Its GI50 is 1.6 µM.

Question: What about the GI50 (KM12) of the same molecule?
Answer: Its GI50 is 2 µM.

Question: What about the GI50 (SF-268) of the same molecule?
Answer: Its GI50 is 0.2 µM.

Question: What about the GI50 (SF-295) of the same molecule?
Answer: Its GI50 is 0.3 µM.

Question: What about the GI50 (M14) of the same molecule?
Answer: Its GI50 is 0.3 µM.

Question: What about the GI50 (SK-MEL-2) of the same molecule?
Answer: The GI50 was 1.3 µM.

Question: And the GI50 (UACC-257)?
Answer: The GI50 was 1 µM.

Question: What about the GI50 (IGROV1) of the same molecule?
Answer: Its GI50 is 0.6 µM.

Question: What about the GI50 (OVCAR-4) of the same molecule?
Answer: Its GI50 is 0.3 µM.

Question: What about the GI50 (OVCAR-5) of the same molecule?
Answer: Its GI50 is 1.3 µM.

Question: What about the GI50 (SK-OV-3) of the same molecule?
Answer: The GI50 was 1.3 µM.

Question: What about the GI50 (786-0) of the same molecule?
Answer: The GI50 was 0.3 µM.

Question: And the GI50 (A498)?
Answer: Its GI50 is 2 µM.

Question: What about the GI50 (ACHN) of the same molecule?
Answer: The GI50 was 0.5 µM.

Question: What about the GI50 (CAKI-1) of the same molecule?
Answer: The GI50 was 0.3 µM.

Question: What about the GI50 (SN12C) of the same molecule?
Answer: The GI50 was 1 µM.

Question: What about the GI50 (PC-3) of the same molecule?
Answer: The GI50 was 1.6 µM.

Question: And the GI50 (DU-145)?
Answer: Its GI50 is 0.4 µM.

Question: And the GI50 (NCI/ADR-RES)?
Answer: Its GI50 is 0.8 µM.

Question: What about the GI50 (MDA-MB-435) of the same molecule?
Answer: The GI50 was 1.6 µM.

Question: What about the GI50 (BT-549) of the same molecule?
Answer: The GI50 was 1.3 µM.

Question: What about the GI50 (T-47D) of the same molecule?
Answer: The GI50 was 2 µM.

Question: Which GI50 (CCRF-CEM) does the source give for `C(=C\c1ccccc1)/S/C=C/c1ccccc1` [EF15] here?
Answer: Its GI50 is 41.5 µM.

Question: And the GI50 (K-562)?
Answer: The GI50 was 78.5 µM.

Question: What about the GI50 (MOLT-4) of the same molecule?
Answer: Its GI50 is > 100 µM.

Question: What about the GI50 (A549) of the same molecule?
Answer: The GI50 was > 100 µM.

Question: What about the GI50 (EKVX) of the same molecule?
Answer: Its GI50 is 64 µM.

Question: And the GI50 (HOP-62)?
Answer: Its GI50 is > 100 µM.

Question: And the GI50 (NCI-H460)?
Answer: The GI50 was > 100 µM.

Question: What about the GI50 (NCI-H522) of the same molecule?
Answer: Its GI50 is 69.9 µM.

Question: What about the GI50 (COLO 205) of the same molecule?
Answer: The GI50 was > 100 µM.

Question: What about the GI50 (HCT-116) of the same molecule?
Answer: Its GI50 is > 100 µM.

Question: And the GI50 (HCT-15)?
Answer: The GI50 was 49.1 µM.

Question: What about the GI50 (KM12) of the same molecule?
Answer: The GI50 was 55.7 µM.

Question: And the GI50 (SF-268)?
Answer: Its GI50 is > 100 µM.

Question: And the GI50 (SF-295)?
Answer: Its GI50 is 80.9 µM.

Question: And the GI50 (M14)?
Answer: The GI50 was > 100 µM.

Question: What about the GI50 (SK-MEL-2) of the same molecule?
Answer: Its GI50 is 31.7 µM.

Question: And the GI50 (UACC-257)?
Answer: Its GI50 is 55.4 µM.

Question: And the GI50 (IGROV1)?
Answer: Its GI50 is > 100 µM.

Question: What about the GI50 (OVCAR-4) of the same molecule?
Answer: The GI50 was > 100 µM.

Question: What about the GI50 (OVCAR-5) of the same molecule?
Answer: The GI50 was > 100 µM.

Question: What about the GI50 (SK-OV-3) of the same molecule?
Answer: The GI50 was > 100 µM.

Question: And the GI50 (786-0)?
Answer: Its GI50 is > 100 µM.

Question: And the GI50 (A498)?
Answer: Its GI50 is 23.3 µM.

Question: What about the GI50 (ACHN) of the same molecule?
Answer: Its GI50 is > 100 µM.

Question: And the GI50 (CAKI-1)?
Answer: The GI50 was > 100 µM.

Question: And the GI50 (SN12C)?
Answer: Its GI50 is > 100 µM.

Question: What about the GI50 (PC-3) of the same molecule?
Answer: The GI50 was > 100 µM.

Question: And the GI50 (DU-145)?
Answer: Its GI50 is > 100 µM.

Question: And the GI50 (NCI/ADR-RES)?
Answer: The GI50 was > 100 µM.

Question: And the GI50 (MDA-MB-435)?
Answer: Its GI50 is 61.2 µM.

Question: What about the GI50 (BT-549) of the same molecule?
Answer: Its GI50 is > 100 µM.

Question: And the GI50 (T-47D)?
Answer: Its GI50 is 18.5 µM.
